# Laboratory results from PMC9934367, “Functional impact of subunit composition and compensation on Drosophila melanogaster nicotinic receptors–targets of neonicotinoids” (PLOS Genetics, 2023).
# Read-outs that look alike come from different tables or passages of the source.
# What was measured:
# [1] = biological target: T1, Dα1/Dα3/Dβ1 nAChR (Drosophila melanogaster, UniProt P04755+P09478+Q9W3G6); assay: cell-based; parameters: species or system D. melanogaster
# T1 construct: Dα1 (NP_524481); Dβ1 (NP_523927); expressed in transfected cells; host or cells: Xenopus laevis oocytes (cRNA injection)
# Protocol: (§1) cDNAs of the nAChR subunits and co-factors were cloned into pcDNA3.1 (+) vector (Thermo Fisher Scientific). The accession numbers of the nAChR subunits and cofactors are as follows: Dα1 (NP_524481), Dα2 (NP_524482), Dα3 (NP_525079), Dα4 (CAB77445), Dβ1 (NP_523927), Dβ2 (NP_524483), Dβ3 (NP_525098), DmRIC-3 (CAP16647), DmUNC-50 (NP_649813), and DmTMX3 (NP_648847). cRNAs were prepared using the mMESSAGE mMACHINE T7 ULTRA Transcription Kit (Thermo Fisher Scientific, #AM1345) according to the manual with the cDNA template which was cut with appropriate restriction enzymes at the 3’ end of the cDNA.
# (§2) We minimised the use of X. laevis according to the UK Animals (Scientific Procedures) Act, 1986. […] Oocytes were defolliculated after collagenase treatment in Ca^2+-free standard oocyte saline (Ca^2+-free SOS). cRNAs of the nAChR subunits and co-factors mixed at a concentration of 0.1 mg/mL was injected into oocytes at a volume of 50 nL. Then the oocytes were incubated in the incubation medium (SOS supplemented with sodium pyruvate (Nacalai Tesque, #13058–12), penicillin-streptomycin (MilliporeSigma, #P4333), gentamycin (Nacalai Tesque, #16672–04), and 4% horse serum (Thermo Fisher Scientific, #26050–070) for 3−4 days prior to electrophysiology.
# (§3) Each defolliculated X. laevis oocyte was secured in a Perspex recording chamber and perfused with the standard oocyte saline (SOS) containing 0.5 μM atropine (SOSA) at a flow rate of 7−10 mL/min [48]. Two glass electrodes filled with 2 M KCl were impaled into each oocyte and the membrane potential was clamped at -100 mV. […] The peak amplitude of the response was measured and analysed by pCLAMP (Molecular Devices, USA).
# (§4) Y=Imax/1+10^(logEC50‐X)nH
# (§5) Where Y is the normalised response, X is log[ligand (M)], EC50 is the half maximal concentration (M), Imax is the maximum normalised response and nH is the Hill coefficient.
# [2] = biological target: T2, Dα1/Dα2/Dα3/Dβ1 nAChR (Drosophila melanogaster, UniProt P04755+P09478+P17644+Q9W3G6); assay: cell-based; parameters: species or system D. melanogaster; conditions: mean ± standard error (n = 5)
# T2 construct: Dα1 (NP_524481); Dα2 (NP_524482); Dβ1 (NP_523927); expressed in transfected cells; host or cells: Xenopus laevis oocytes (cRNA injection)
# Protocol: as §1, §2, §3, §4, §5
# [3] = biological target: T3, Dα1/Dα3/Dβ1/Dβ2 nAChR (Drosophila melanogaster, UniProt P04755+P09478+P25162+Q9W3G6); assay: cell-based; parameters: species or system D. melanogaster; conditions: mean ± standard error (n = 5)
# T3 construct: Dα1 (NP_524481); Dβ1 (NP_523927); Dβ2 (NP_524483); expressed in transfected cells; host or cells: Xenopus laevis oocytes (cRNA injection)
# Protocol: as §1, §2, §3, §4, §5
# [4] = biological target: T4, Dα1/Dα3/Dβ1/Dβ2/Dβ3 nAChR; assay: Voltage-clamp electrophysiology, nAChR expressed in X. laevis oocytes; type: cell-based, D. melanogaster; conditions: mean ± standard error (n = 5); for Imax: normalised to maximum ACh response
# T4 construct: Dα1 (NP_524481); Dβ1 (NP_523927); Dβ2 (NP_524483); expressed in transfected cells; host or cells: Xenopus laevis oocytes (cRNA injection)
# Protocol: as §1, §2, §3, §4, §5
# [5] = biological target: T5, Dα2/Dα3/Dβ1/Dβ2 nAChR (Drosophila melanogaster, UniProt P04755+P17644+P25162+Q9W3G6); assay: as above; type: cell-based, D. melanogaster; conditions: mean ± standard error (n = 5)
# T5 construct: Dα2 (NP_524482); Dβ1 (NP_523927); Dβ2 (NP_524483); expressed in transfected cells; host or cells: Xenopus laevis oocytes (cRNA injection)
# Protocol: as §1, §2, §3, §4, §5
# [6] = biological target: T6, Dα1/Dβ1/Dβ2 nAChR (Drosophila melanogaster, UniProt P04755+P09478+P25162); assay: as above; type: cell-based, D. melanogaster
# T6 construct: Dα1 (NP_524481); Dβ1 (NP_523927); Dβ2 (NP_524483); expressed in transfected cells; host or cells: Xenopus laevis oocytes (cRNA injection)
# Protocol: as §1, §2, §3, §4, §5
# [7] = biological target: T7, Dα2/Dα3/Dβ1/Dβ2/Dβ3 nAChR; assay: as above; type: cell-based, D. melanogaster; conditions: mean ± standard error (n = 5); for Imax: normalised to maximum ACh response
# T7 construct: Dα2 (NP_524482); Dβ1 (NP_523927); Dβ2 (NP_524483); expressed in transfected cells; host or cells: Xenopus laevis oocytes (cRNA injection)
# Protocol: as §1, §2, §3, §4, §5
# [8] = test system: T8, Dα1/Dα2/Dα3/Dβ1/Dβ2 nAChR; assay: as above; type: cell-based, D. melanogaster; conditions: mean ± standard error (n = 5)
# T8 construct: Dα1 (NP_524481); Dα2 (NP_524482); Dβ1 (NP_523927); Dβ2 (NP_524483); expressed in transfected cells; host or cells: Xenopus laevis oocytes (cRNA injection)
# Protocol: as §1, §2, §3, §4, §5
# [9] = biological target: T9, Dα1/Dα2/Dβ1 nAChR (Drosophila melanogaster, UniProt P04755+P09478+P17644); assay: as above; type: cell-based, D. melanogaster
# T9 construct: Dα1 (NP_524481); Dα2 (NP_524482); Dβ1 (NP_523927); expressed in transfected cells; host or cells: Xenopus laevis oocytes (cRNA injection)
# Protocol: as §1, §2, §3, §4, §5
# [10] = biological target: T10, Dα1/Dα2/Dβ1/Dβ2 nAChR (Drosophila melanogaster, UniProt P04755+P09478+P17644+P25162); assay: as above; type: cell-based, D. melanogaster; conditions: mean ± standard error (n = 5)
# T10 construct: Dα1 (NP_524481); Dα2 (NP_524482); Dβ1 (NP_523927); Dβ2 (NP_524483); expressed in transfected cells; host or cells: Xenopus laevis oocytes (cRNA injection)
# Protocol: as §1, §2, §3, §4, §5
# [11] = biological target: T11, Dα2/Dα3/Dβ1 nAChR (Drosophila melanogaster, UniProt P04755+P17644+Q9W3G6); assay: as above; type: cell-based, D. melanogaster; conditions: Dα2/Dα3/Dβ1 nAChR, mean ± standard error (n = 5)
# T11 construct: Dα2 (NP_524482); Dβ1 (NP_523927); expressed in transfected cells; host or cells: Xenopus laevis oocytes (cRNA injection)
# Protocol: as §1, §2, §3, §4, §5
# [12] = biological target: T12, Dα1/Dβ1 nAChR (Drosophila melanogaster, UniProt P04755+P09478); assay: as above; type: cell-based, D. melanogaster; conditions: mean ± standard error (n = 5)
# T12 construct: Dα1 (NP_524481); Dβ1 (NP_523927); expressed in transfected cells; host or cells: Xenopus laevis oocytes (cRNA injection)
# Protocol: as §1, §2, §3, §4, §5
# [13] = biological target: T13, Dα1/Dα2/Dβ1/Dβ2/Dβ3 nAChR; assay: as above; type: cell-based, D. melanogaster; conditions: mean ± standard error (n = 5); for Imax: normalised to maximum ACh response
# T13 construct: Dα1 (NP_524481); Dα2 (NP_524482); Dβ1 (NP_523927); Dβ2 (NP_524483); expressed in transfected cells; host or cells: Xenopus laevis oocytes (cRNA injection)
# Protocol: as §1, §2, §3, §4, §5
# [14] = efficacy, mean ± standard error (n = 5)
# [15] = mean ± standard error (n = 5), read-out: pEC50 (converted)
# [16] = normalised to maximum ACh response, mean ± standard error (n = 5)
# [17] = normalised to maximum ACh response
SMILES,"Imax [1, 14]","Imax [1, 16]",Imax ([2]; efficacy),EC50 [2] [nM],"Imax [2, 17]",Imax ([3]; efficacy),EC50 [3] [nM],"Imax [3, 17]",pEC50 [4],Imax [4],Imax ([5]; efficacy),EC50 [5] [nM],"Imax [5, 17]","Imax [6, 14]","Imax [6, 16]",pEC50 [7],Imax [7],Imax ([8]; efficacy),pEC50 [8],"Imax [8, 17]",also measured
"O=[N+]([O-])NC1=NCCN1Cc1ccc(Cl)nc1 [Imidacloprid, imidacloprid]",0.170,0.170 ± 0.020,0.094,83.2,0.094 ± 0.007,0.330,30.2,0.330 ± 0.018,7.72 ± 0.11,0.140 ± 0.008,0.125,100,0.125 ± 0.018,0.076,0.076 ± 0.006,7.75 ± 0.31,0.021 ± 0.003,0.142,6.47 ± 0.14,0.142 ± 0.011,"EC50 [1, 15]: 26.3 nM; EC50 ([6]; read-out: EC50): 102 nM; Imax ([7]; listed as imidacloprid): 0.021; Imax ([8]; normalised to maximum ACh response, listed as imidacloprid): 0.142; Imax [9, 14]: 0.031; EC50 [9, 15]: 195 nM; Imax [9, 16]: 0.031 ± 0.002; Imax ([10]; efficacy): 0.165; EC50 [10]: 355 nM; Imax [10, 17]: 0.165 ± 0.016; EC50 [11]: 132 nM; Imax [11, 17]: 0.101 ± 0.016; Imax ([11]; efficacy): 0.101; Imax ([12]; efficacy): 0.122; EC50 [12]: 69.2 nM; Imax [12, 17]: 0.122 ± 0.007; pEC50 [13]: 6.27 ± 0.21; Imax [13]: 0.080 ± 0.007; Imax ([13]; listed as imidacloprid): 0.080"
"N#C/N=C1\SCCN1Cc1ccc(Cl)nc1 [Thiacloprid, thiacloprid]",0.047,0.047 ± 0.006,0.047,18.6,0.047 ± 0.004,0.107,10,0.107 ± 0.015,8.63 ± 0.23,0.089 ± 0.009,0.017,8.32,0.017 ± 0.002,0.043,0.043 ± 0.002,8.31 ± 0.17,0.010 ± 0.001,0.059,7.18 ± 0.17,0.059 ± 0.006,"EC50 ([1]; read-out: EC50): 8.51 nM; EC50 [6, 15]: 13.8 nM; Imax ([7]; listed as thiacloprid): 0.010; Imax ([8]; normalised to maximum ACh response, listed as thiacloprid): 0.059; Imax [9, 14]: 0.025; Imax [9, 16]: 0.025 ± 0.001; EC50 ([9]; read-out: EC50): 120 nM; Imax ([10]; efficacy): 0.074; EC50 [10]: 79.4 nM; Imax [10, 17]: 0.074 ± 0.014; EC50 [11]: 120 nM; Imax [11, 17]: 0.045 ± 0.006; Imax ([11]; efficacy): 0.045; Imax ([12]; efficacy): 0.091; EC50 [12]: 16.2 nM; Imax [12, 17]: 0.091 ± 0.009; pEC50 [13]: 7.71 ± 0.43; Imax [13]: 0.023 ± 0.004; Imax ([13]; listed as thiacloprid): 0.023"
